{"source": "patent US20250212902A1", "about": "“METHOD AND COMPOSITION FOR IMPROVEMENT OF AGRICULTURAL PRODUCE” (UPL CORPORATION LIMITED, priority 2022, published 2025)", "key": {"[1]": {"tested_on": "powdery mildew (Uncinula necator)", "assay": "Control of powdery mildew in grape", "type": "in vivo", "details": "Example 7 Trial 2, 10 applications, 3 day interval", "procedure": "(§1) 10 applications […] were performed with an interval of 3 days with the 1st application being at inflorescence stage (BBCH 53). Severity of disease was evaluated in at least 20 leaves/plot, prior evaluation was performed before the first application, at 3 days after each application and at 7 and 10 days after the last application. Phytotoxicity (0 to 100%) was evaluated before each spray and at 3 days after each application. Post-harvest bunch weight was evaluated at 19 days after harvest. Control of powdery mildew was recorded as % control. Yield was evaluated as Kg/ha. Post-harvest bunch weight was recorded as g/bunch. […] 10 applications […] were performed with an interval of 3 days with the 1st application being at inflorescence stage (BBCH 53). Severity of disease was evaluated in at least 20 leaves/plot, prior evaluation was performed before the first application, at 3 days after each application and at 7 and 10 days after the last application. Phytotoxicity (0 to 100%) was evaluated before each spray and at 3 days after each application. Post-harvest bunch weight was evaluated at 19 days after harvest. Control of powdery mildew was recorded as % control. Post-harvest bunch weight was recorded as g/bunch."}, "[2]": {"tested_on": "grape", "assay": "Post-harvest bunch weight in grape (Example 7)", "type": "in vivo", "details": "19 days after harvest, Example 7 Trial 2", "procedure": "as §1"}}}
{"smiles": "O=C([O-])O.[K+]", "note": "[Potassium bicarbonate, potassium bicarbonate]", "values": [{"measurement": "% Control of Uncinula necator", "setting": "[1]", "value": 67.7, "unit": "%"}, {"measurement": "Post-harvest bunch weight (g/bunch)", "setting": "[2]", "value": 420.3, "unit": "g/bunch"}]}
